biological target: T1, AhR (Homo sapiens, UniProt P35869); test: In Vitro Assay 1: XRE-luciferase reporter assay, antagonism in human cell line (HepG2); details: Assay 1: AhR-Luc Human Antagonism (IC50, nM), values marked *: kynurenine 50 μM, 6 hours
T1 sequence (P35869 11-848): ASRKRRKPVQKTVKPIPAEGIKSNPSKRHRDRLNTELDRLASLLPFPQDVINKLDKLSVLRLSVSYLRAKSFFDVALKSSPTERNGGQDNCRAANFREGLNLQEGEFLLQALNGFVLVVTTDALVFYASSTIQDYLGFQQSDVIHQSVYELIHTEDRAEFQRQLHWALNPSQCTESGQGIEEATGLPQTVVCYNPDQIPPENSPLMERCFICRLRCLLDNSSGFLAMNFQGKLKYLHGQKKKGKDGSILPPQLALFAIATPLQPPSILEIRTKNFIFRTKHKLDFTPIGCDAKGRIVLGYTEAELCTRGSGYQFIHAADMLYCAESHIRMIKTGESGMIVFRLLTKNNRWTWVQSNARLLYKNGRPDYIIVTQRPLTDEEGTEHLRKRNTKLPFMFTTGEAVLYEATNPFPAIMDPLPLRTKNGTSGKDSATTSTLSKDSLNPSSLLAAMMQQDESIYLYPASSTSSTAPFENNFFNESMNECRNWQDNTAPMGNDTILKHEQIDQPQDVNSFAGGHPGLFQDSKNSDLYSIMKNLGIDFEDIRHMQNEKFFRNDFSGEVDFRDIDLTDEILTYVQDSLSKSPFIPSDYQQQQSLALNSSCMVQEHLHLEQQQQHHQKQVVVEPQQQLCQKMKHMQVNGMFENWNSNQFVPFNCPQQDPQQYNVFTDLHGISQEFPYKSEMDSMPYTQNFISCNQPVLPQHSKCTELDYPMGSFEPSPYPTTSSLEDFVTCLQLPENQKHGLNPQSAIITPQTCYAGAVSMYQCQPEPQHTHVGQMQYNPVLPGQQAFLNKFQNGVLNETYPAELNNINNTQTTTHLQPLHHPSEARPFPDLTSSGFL

Compared with `CCOC(=O)CC1CCN(c2cc(-c3ccc(Cl)cc3)nc(-c3cccnc3)n2)CC1` [Example 161, ethyl 2-(1-(6-(4-chlorophenyl)-2-(pyridin-3-yl)pyrimidin-4-yl)piperidin-4-yl)acetate], `CC(OC(=O)C(F)(F)F)C1CCN(c2cc(-c3ccc(Cl)cc3)nc(-c3cccnc3)n2)CC1` (centres unmarked) [Example 172, 1-(1-(6-(4-chlorophenyl)-2-(pyridin-3-yl)pyrimidin-4-yl)piperidin-4-yl)ethyl 2,2,2-trifluoroacetate] is lower in IC50: over 1000 nM for the first, under 10 nM for the second.

First: O[C@H]1CCCN(c2cc(-c3ccc(Cl)cc3)nc(-c3cccnc3)n2)C1 [Example 163, (S)-1-(6-(4-chlorophenyl)-2-(pyridin-3-yl)pyrimidin-4-yl)piperidin-3-ol]
Second: O[C@@H]1CCN(c2cc(-c3ccc(Cl)cc3)nc(-c3cccnc3)n2)C1 [Example 194, (R)-1-(6-(4-chlorophenyl)-2-(pyridin-3-yl)pyrimidin-4-yl)pyrrolidin-3-ol]
The IC50 of the first is higher: 10 to 100 nM for the first, under 10 nM for the second. The second is the more potent here.

First: CN(C)C1CCN(c2cc(-c3ccc(Cl)cc3)nc(-c3cccnc3)n2)C1 (centres unmarked) [Example 164, 1-(6-(4-chlorophenyl)-2-(pyridin-3-yl)pyrimidin-4-yl)-N,N-dimethylpyrrolidin-3-amine]
Second: F[C@H]1CCN(c2cc(-c3ccc(Cl)cc3)nc(-c3cccnc3)n2)C1 [Example 196, (S)-4-(4-chlorophenyl)-6-(3-fluoropyrrolidin-1-yl)-2-(pyridin-3-yl)pyrimidine]
The IC50 of the first is higher: 100 to 1000 nM for the first, 10 to 100 nM for the second. The second is the more potent here.

`CN(C)CCC1CCCN1c1cc(-c2ccc(Cl)cc2)nc(-c2cccnc2)n1` (centres unmarked) [Example 165, 2-(1-(6-(4-chlorophenyl)-2-(pyridin-3-yl)pyrimidin-4-yl)pyrrolidin-2-yl)-N,N-dimethylethan-1-amine] and `FC(F)(F)C1CCCN1c1cc(-c2ccc(Cl)cc2)nc(-c2cccnc2)n1` (centres unmarked) [Example 197, 4-(4-chlorophenyl)-2-(pyridin-3-yl)-6-(2-(trifluoromethyl)pyrrolidin-1-yl)pyrimidine] cannot be ordered by IC50: over 1000 nM for the first, over 1000 nM for the second.

`O=C1CCN(c2cc(-c3ccc(Cl)cc3)nc(-c3cccnc3)n2)CC1` [Example 166, 1-(6-(4-chlorophenyl)-2-(pyridin-3-yl)pyrimidin-4-yl)piperidin-4-one] and `Clc1ccc(-c2cc(N3CCC4CCCOC4C3)nc(-c3cccnc3)n2)cc1` (centres unmarked) [Example 190, 7-(6-(4-chlorophenyl)-2-(pyridin-3-yl)pyrimidin-4-yl)octahydro-2H-pyrano[2,3-c]pyridine] fall in the same range of IC50: 10 to 100 nM for the first, 10 to 100 nM for the second.

`CN(c1cc(-c2ccc(Cl)cc2)nc(-c2cccnc2)n1)C1CCNCC1` [Example 167, 6-(4-chlorophenyl)-N-methyl-N-(piperidin-4-yl)-2-(pyridin-3-yl)pyrimidin-4-amine] and `CC(Nc1cc(-c2ccc(Cl)cc2)nc(-c2cccnc2)n1)C1CCN(C)CC1` (centres unmarked) [Example 169, 6-(4-chlorophenyl)-N-(1-(1-methylpiperidin-4-yl)ethyl)-2-(pyridin-3-yl)pyrimidin-4-amine] cannot be ordered by IC50: over 1000 nM for the first, over 1000 nM for the second.

Compared with `CN1CCCCC1CCNc1cc(-c2ccc(Cl)cc2)nc(-c2cccnc2)n1` (centres unmarked) [Example 168, 6-(4-chlorophenyl)-N-(2-(1-methylpiperidin-2-yl)ethyl)-2-(pyridin-3-yl)pyrimidin-4-amine], `CN1CCC(CNc2cc(-c3ccc(Cl)cc3)nc(-c3cccnc3)n2)CC1` [Example 193, 6-(4-chlorophenyl)-N-((1-methylpiperidin-4-yl)methyl)-2-(pyridin-3-yl)pyrimidin-4-amine] is lower in IC50: over 1000 nM for the first, 100 to 1000 nM for the second. The second is the more potent here.

First: COC(=O)CN1CCC(Nc2cc(-c3ccc(Cl)cc3)nc(-c3cccnc3)n2)CC1 [Example 171, methyl 2-(4-((6-(4-chlorophenyl)-2-(pyridin-3-yl)pyrimidin-4-yl)amino)piperidin-1-yl)acetate]
Second: CN1CCCC(Nc2cc(-c3ccc(Cl)cc3)nc(-c3cccnc3)n2)C1 (centres unmarked) [Example 173, 6-(4-chlorophenyl)-N-(1-methylpiperidin-3-yl)-2-(pyridin-3-yl)pyrimidin-4-amine]
The IC50 of the first is lower: 10 to 100 nM for the first, 100 to 1000 nM for the second.

`Cn1cc(-c2nc(N[C@@H]3CCC[C@@H]3O)cc(-c3ccc(Cl)cc3)n2)cn1` [Example 174, (1S,2R)-2-((6-(4-chlorophenyl)-2-(1-methyl-1H-pyrazol-4-yl)pyrimidin-4-yl)amino)cyclopentan-1-ol] and `Cn1cc(-c2nc(N[C@@H]3CC[C@H](O)C3)cc(-c3ccc(Cl)cc3)n2)cn1` [Example 187, (1S,3R)-3-((6-(4-chlorophenyl)-2-(1-methyl-1H-pyrazol-4-yl)pyrimidin-4-yl)amino)cyclopentan-1-ol] fall in the same range of IC50: 100 to 1000 nM for the first, 100 to 1000 nM for the second.

First: Cn1cc(-c2nc(-c3ccc(Cl)cc3)cc(N3CCC[C@@H](O)C3)n2)cn1 [Example 175, (R)-1-(6-(4-chlorophenyl)-2-(1-methyl-1H-pyrazol-4-yl)pyrimidin-4-yl)piperidin-3-ol]
Second: Cn1cc(-c2nc(-c3ccc(Cl)cc3)cc(N3CC[C@H](O)C3)n2)cn1 [Example 183, (S)-1-(6-(4-chlorophenyl)-2-(1-methyl-1H-pyrazol-4-yl)pyrimidin-4-yl)pyrrolidin-3-ol]
The IC50 of the first is lower: 10 to 100 nM for the first, 100 to 1000 nM for the second.

`Cn1cc(-c2nc(-c3ccc(Cl)cc3)cc(N3CCC(O)CC3)n2)cn1` [Example 176, 1-(6-(4-chlorophenyl)-2-(1-methyl-1H-pyrazol-4-yl)pyrimidin-4-yl)piperidin-4-ol] and `Cn1cc(-c2nc(-c3ccc(Cl)cc3)cc(N3CC[C@@H](O)C3)n2)cn1` [Example 186, (R)-1-(6-(4-chlorophenyl)-2-(1-methyl-1H-pyrazol-4-yl)pyrimidin-4-yl)pyrrolidin-3-ol] cannot be ordered by IC50: over 1000 nM for the first, over 1000 nM for the second.

First: Cn1cc(-c2nc(-c3ccc(Cl)cc3)cc(N3CCC(CO)CC3)n2)cn1 [Example 177, (1-(6-(4-chlorophenyl)-2-(1-methyl-1H-pyrazol-4-yl)pyrimidin-4-yl)piperidin-4-yl)methanol]
Second: Cn1cc(-c2nc(-c3ccc(Cl)cc3)cc(N3CCC(CCO)CC3)n2)cn1 [Example 178, 2-(1-(6-(4-chlorophenyl)-2-(1-methyl-1H-pyrazol-4-yl)pyrimidin-4-yl)piperidin-4-yl)ethan-1-ol]
The IC50 of the first is lower: 10 to 100 nM for the first, 100 to 1000 nM for the second.

Compared with `Cn1cc(-c2nc(-c3ccc(Cl)cc3)cc(N3CCC(CCCO)CC3)n2)cn1` [Example 179, 3-(1-(6-(4-chlorophenyl)-2-(1-methyl-1H-pyrazol-4-yl)pyrimidin-4-yl)piperidin-4-yl)propan-1-ol], `CC1CCN(c2cc(-c3ccc(Cl)cc3)nc(-c3cnn(C)c3)n2)CC1` [Example 180, 4-(4-chlorophenyl)-2-(1-methyl-1H-pyrazol-4-yl)-6-(4-methylpiperidin-1-yl)pyrimidine] is higher in IC50: 100 to 1000 nM for the first, over 1000 nM for the second. The first is the more potent here.

`CN1CCN(c2cc(-c3ccc(Cl)cc3)nc(-c3cnn(C)c3)n2)CC1` [Example 181, 4-(4-chlorophenyl)-2-(1-methyl-1H-pyrazol-4-yl)-6-(4-methylpiperazin-1-yl)pyrimidine] and `Cn1cc(-c2nc(-c3ccc(Cl)cc3)cc(N3CCN(CCO)CC3)n2)cn1` [Example 182, 2-(4-(6-(4-chlorophenyl)-2-(1-methyl-1H-pyrazol-4-yl)pyrimidin-4-yl)piperazin-1-yl)ethan-1-ol] fall in the same range of IC50: 100 to 1000 nM for the first, 100 to 1000 nM for the second.

`Cn1cc(-c2nc(-c3ccc(Cl)cc3)cc(N3CCC(C#N)CC3)n2)cn1` [Example 184, 1-(6-(4-chlorophenyl)-2-(1-methyl-1H-pyrazol-4-yl)pyrimidin-4-yl)piperidine-4-carbonitrile] and `Cn1cc(-c2nc(-c3ccc(Cl)cc3)cc(N3CCC[C@@H](CO)C3)n2)cn1` [Example 185, (R)-(1-(6-(4-chlorophenyl)-2-(1-methyl-1H-pyrazol-4-yl)pyrimidin-4-yl)piperidin-3-yl)methanol] fall in the same range of IC50: 100 to 1000 nM for the first, 100 to 1000 nM for the second.

`CC[C@H](CO)Nc1cc(-c2ccc(Cl)cc2)nc(-c2cnn(C)c2)n1` [Example 188, (R)-2-((6-(4-chlorophenyl)-2-(1-methyl-1H-pyrazol-4-yl)pyrimidin-4-yl)amino)butan-1-ol] and `Cn1cc(-c2nc(N[C@H]3CC[C@H](O)CC3)cc(-c3ccc(Cl)cc3)n2)cn1` [Example 189, Trans-4-((6-(4-chlorophenyl)-2-(1-methyl-1H-pyrazol-4-yl)pyrimidin-4-yl)amino)cyclohexan-1-ol] fall in the same range of IC50: 100 to 1000 nM for the first, 100 to 1000 nM for the second.

Compared with `OC1CCOC2CN(c3cc(-c4ccc(Cl)cc4)nc(-c4cccnc4)n3)CCC12` (centres unmarked) [Example 191, 7-(6-(4-chlorophenyl)-2-(pyridin-3-yl)pyrimidin-4-yl)octahydro-2H-pyrano[2,3-c]pyridin-4-ol], `COC[C@@H]1CCCN1Nc1cc(-c2ccc(Cl)cc2)nc(-c2cccnc2)n1` [Example 195, (S)-6-(4-chlorophenyl)-N-(2-(methoxymethyl)pyrrolidin-1-yl)-2-(pyridin-3-yl)pyrimidin-4-amine] is higher in IC50: 10 to 100 nM for the first, over 1000 nM for the second. The first is the more potent here.

`CC[C@@H](Nc1cc(-c2ccc(Cl)cc2)nc(-c2cccnc2)n1)[C@@H](C)O` [Example 192, (2R,3R)-3-((6-(4-chlorophenyl)-2-(pyridin-3-yl)pyrimidin-4-yl)amino)pentan-2-ol] gave an IC50 of 100 to 1000 nM.
